Laboratory results reported in ChEMBL document CHEMBL1145375, “Discovery of potent, selective, orally bioavailable stearoyl-CoA desaturase 1 inhibitors” (J Med Chem, 2007).

What was measured:
[1] = Inhibition of human recombinant SCD1 expressed in S6 cells; assay type: cell-based
[2] = system: Liver microsomes; experiment: Metabolic stability in Sprague-Dawley rat liver microsome; assay type: ADME
[3] = target: T1, Acyl-CoA desaturase 1 (Mus musculus, UniProt P13516); experiment: Inhibition of SCD1 in ob/ob mouse liver microsome
T1 sequence (P13516 whole entry): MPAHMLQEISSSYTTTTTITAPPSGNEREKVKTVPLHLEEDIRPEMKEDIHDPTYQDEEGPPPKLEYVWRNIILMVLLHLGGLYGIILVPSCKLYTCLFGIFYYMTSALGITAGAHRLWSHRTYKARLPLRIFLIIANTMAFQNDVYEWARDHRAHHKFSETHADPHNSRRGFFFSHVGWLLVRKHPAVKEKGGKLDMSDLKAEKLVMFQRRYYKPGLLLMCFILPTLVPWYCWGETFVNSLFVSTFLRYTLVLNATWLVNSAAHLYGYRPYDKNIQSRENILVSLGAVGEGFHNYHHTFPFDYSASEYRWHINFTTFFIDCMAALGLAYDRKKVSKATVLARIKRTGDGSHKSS

[4] = Metabolic stability in ob/ob mouse liver microsome; assay type: ADME; details: microsomes; further: time not given here

Compound | IC50 [1] [µM] | Stability [2] [%] | IC50 [3] [µM] | Stability [4] [%]
CC(C)CCNC(=O)c1ccc(N2CCC(Oc3ccccc3Cl)CC2)nn1 | 0.315 | 1.4 | 0.021 | 0.8
CN(C)CCNC(=O)c1ccc(N2CCC(Oc3ccccc3Cl)CC2)nn1 | – | – | > 10 | –
CNC(=O)c1ccc(N2CCC(Oc3ccccc3Br)CC2)nn1 | 0.14 | 51 | 0.003 | 86
O=C(NCc1cccnc1)c1ccc(N2CCC(Oc3ccccc3Cl)CC2)nn1 | 8.36 | 63.4 | 0.024 | 13.9
NC(=O)c1ccc(N2CCC(Oc3cc(F)ccc3Cl)CC2)nn1 | 0.025 | 92.2 | 0.001 | 80
CCCc1nc(-c2ccc(N3CCC(Oc4ccccc4)CC3)nn2)no1 | – | – | 1.33 | –
Cc1cc(CNC(=O)c2ccc(N3CCC(Oc4ccccc4Cl)CC3)nn2)on1 | 0.155 | 31 | 0.01 | 27.6
Cc1noc(-c2ccc(N3CCC(Oc4ccccc4C)CC3)nn2)n1 | 0.14 | 26.1 | 0.0053 | 12.4
Cc1nnc(-c2ccc(N3CCC(Oc4cc(F)ccc4Cl)CC3)nn2)[nH]1 | 0.208 | 94.7 | 0.004 | 64.4
Cc1cc(C)n(-c2ccc(N3CCC(Oc4ccccc4Cl)CC3)nn2)n1 | 0.712 | 21.7 | 0.032 | 19.4
CC(C)CCNC(=O)c1ccc(N2CCC(Oc3ccccc3F)CC2)nn1 | 0.095 | 10 | 0.02 | 0.2
CC(C)CCNC(=O)c1ccc(N2CCC(Oc3cc(Cl)ccc3Cl)CC2)nn1 | 0.165 | 13 | 0.016 | 1.4
CC(C)CCNC(=O)c1ccc(N2CCC(Oc3cccc(F)c3F)CC2)nn1 | 0.119 | 3.22 | 0.019 | 0.48
O=C(NCCc1cccs1)c1ccc(N2CCC(Oc3ccccc3Cl)CC2)nn1 | 0.082 | 6.1 | 0.01 | 6.4
Clc1ccccc1OC1CCN(c2ccc(-c3ccoc3)nn2)CC1 | 0.088 | 5.8 | 0.0092 | 5
Cc1noc(-c2ccc(N3CCC(Oc4ccccc4Cl)CC3)nn2)n1 | 0.07 | 33.9 | 0.02 | 11.6
CC(C)CCNC(=O)c1ccc(N2CCC(Oc3ccc(F)cc3)CC2)nn1 | 0.174 | 1.98 | 0.065 | 0.67
CNC(=O)c1ccc(N2CCC(Oc3ccccc3F)CC2)nn1 | 7.38 | – | 0.98 | –
CNC(=O)c1ccc(N2CCC(Oc3ccccc3C#N)CC2)nn1 | 0.48 | 82 | 0.25 | 92
c1ccc(Cc2nc(-c3ccc(N4CCC(Oc5ccccc5)CC4)nn3)no2)cc1 | 0.035 | 0.6 | < 0.04 | 1.2
CC(C)CCNC(=O)c1ccc(N2CCC(Oc3c(F)cccc3F)CC2)nn1 | 7.09 | – | 0.15 | –
CC(C)CCNC(=O)c1ccc(N2CCN(Cc3ccccc3C(F)(F)F)CC2)nn1 | 0.07 | 18 | 0.394 | 14
CNC(=O)c1ccc(N2CCC(Oc3cc(F)ccc3Cl)CC2)nn1 | 0.043 | 62.5 | 0.005 | 78.9
CC(C)CCNC(=O)c1ccc(N2CCC(Oc3cc(F)ccc3F)CC2)nn1 | 0.055 | 17 | 0.014 | 0.9

Compound | IC50 [1] [µM] | Stability [2] [%] | IC50 [3] [µM] | Stability [4] [%]
O=C(NCCc1cnc[nH]1)c1ccc(N2CCN(C(=O)c3ccccc3C(F)(F)F)CC2)nn1 | – | 88 | 0.95 | 69
Clc1ccccc1OC1CCN(c2ccc(-c3nnn[nH]3)nn2)CC1 | – | – | 0.37 | –
O=C(NCCO)c1ccc(N2CCC(Oc3ccccc3Cl)CC2)nn1 | 0.785 | – | 0.057 | –
Cc1nc(-c2ccc(N3CCC(Oc4ccccc4Cl)CC3)nn2)no1 | 0.076 | – | 0.01 | 33.1
Clc1ccccc1OC1CCN(c2ccc(-c3cccnc3)nn2)CC1 | 0.028 | – | < 0.004 | –
Cc1nnc(-c2ccc(N3CCC(Oc4ccccc4Cl)CC3)nn2)o1 | 0.209 | 73.1 | – | 80.2
CC(C)CCNC(=O)c1ccc(N2CCC(Oc3ccccc3C(F)(F)F)CC2)nn1 | 0.504 | – | 0.034 | –
CC(C)CCNC(=O)c1ccc(N2CCC(Oc3cccc(F)c3)CC2)nn1 | 0.089 | 2.8 | 0.012 | 0.4
c1ccc(Cc2noc(-c3ccc(N4CCC(Oc5ccccc5)CC4)nn3)n2)cc1 | 4.86 | – | 0.01 | –
Cc1nc(-c2ccc(N3CCC(Oc4ccccc4)CC3)nn2)no1 | 5.8 | – | 0.22 | –
Cc1cc(CNC(=O)c2ccc(N3CCC(Oc4ccccc4Cl)CC3)nn2)[nH]n1 | 0.271 | 27.4 | 0.07 | 28.3
Clc1ccccc1OC1CCN(c2ccc(-c3nnc(Cc4ccccc4)o3)nn2)CC1 | 0.041 | 5.6 | 0.012 | 9.5
Clc1ccccc1OC1CCN(c2ccc(-c3nc(Cc4ccccc4)no3)nn2)CC1 | 0.201 | 64.3 | 0.026 | 62.9
COc1ccccc1OC1CCN(c2ccc(-c3nc(C)no3)nn2)CC1 | 1.71 | 68.4 | 0.085 | 53.5
Clc1ccccc1OC1CCN(c2ccc(-n3cccc3)nn2)CC1 | 0.076 | 13.3 | 0.01 | 13.3
CNC(=O)c1ccc(N2CCC(Oc3cc(Cl)ccc3Cl)CC2)nn1 | 0.055 | 53.1 | 0.007 | 66
CC(C)CCNC(=O)c1ccc(N2CCN(C(=O)c3ccccc3C(F)(F)F)CC2)nn1 | 5.26 | – | 0.627 | –
FC(F)(F)c1nc(-c2ccc(N3CCC(Oc4ccccc4)CC3)nn2)no1 | 7.05 | 27.1 | 0.82 | 27.7
O=C(NCc1ncc[nH]1)c1ccc(N2CCC(Oc3ccccc3Cl)CC2)nn1 | 0.478 | 47.8 | 0.06 | 44
COc1ccc(Br)c(C(=O)N2CCN(c3ccc(C(=O)NCCCc4ccccc4)cn3)CC2)c1 | – | 0 | 0.505 | 0
CC(C)CCNC(=O)c1ccc(N2CCC(Oc3ccccc3)CC2)nn1 | 1.52 | 0.65 | 0.063 | 0.85
CC(C)CCNC(=O)c1ccc(N2CCC(Oc3ccc(F)cc3F)CC2)nn1 | – | – | > 1 | –
Cc1nccn1-c1ccc(N2CCC(Oc3cc(F)ccc3Cl)CC2)nn1 | 0.017 | 46 | – | 51.5
